{
  "source": "patent US20240287614A1",
  "about": "“RECIPROCAL MICRORNA-MRNA PAIRINGS AS BIOMARKERS AND THERAPEUTIC TARGETS IN CANCER” (UNIVERSITY OF MARYLAND, EASTERN SHORE, priority 2023, published 2024)",
  "test_system": "MTOR",
  "experiment": "RT-qPCR of MTOR expression after miRNA mimic transfection",
  "format": "cell-based, human",
  "details": "African American and European American prostate cancer cells; vs nonsense/scrambled (NS) miRNA control",
  "description": "[…] RC77 T/E, a primary prostate cancer cell line derived from a patient, was kindly provided by Dr. Johng Rhim at Center for Prostate Disease Research (CPDR) in Rockville, MD. LNCaP and PC-3 were served as prostate cancer cell line models, and RC77 T/E and MDA PCa 2b were served as prostate cancer cell models in the study. The cells were cultured in specific cell culture media, LNCaP was cultured in RPMI with 10% fetal bovine serum (FBS), PC-3 was cultured in DMEM with 10% FBS, MDA PCa 2b were cultured in BRFF-HPC1 with 20% FBS and RC77 T/E was cultured in Keratinocyte SFM with Human Recombinant Epidermal Growth Factor (EGF 1-53) and Bovine Pituitary Extract (BPE). Cells were maintained at 37° C. in a 5% CO2 incubator. LNCaP, PC-3 and MDA PCa 2b cells were seeded at density 3×10^4 cells/well in 6-well plates. RC77 T/E cells were seeded at density 5×10^4 cells/well in 6-well plates. […]\nFor the measurement of gene expression level, total RNA was isolated using miRNeasy Mini Kit (50) (Qiagen) from the prostate cancer cells used in the study. Quantification of total RNA samples were done using NanoVue Plus spectrophotometer (GE Healthcare). […] Reverse transcription was performed using iScript Reverse Transcription Supermix kit (Bio-Rad) to generate cDNA then followed by performing quantitative PCR (qPCR) assays using SsoAdvanced Universal SYBR Green supermix kit (Bio-Rad). […]",
  "data": [
    {"substance": "miR-99b-5p mimic: miRNA mimic of miR-99b-5p (SEQ ID NO: 2, CACCCGUAGAACCGACCUUGCG), purchased from Ambion (listed as RNA, chemistry not given here; listed as Homo sapiens)", "values": [
      {"measurement": "MTOR expression (RT-qPCR)", "value": "decreased"}
    ]}
  ]
}
